Experimental data: patent US9572807B2, “Protocols for treatment of major depressive disorder (MDD)” (NEURALSTEM, INC., priority 2014, dated 2017)

Experiments:
[1] = system: patients with symptomatic MDD; assay: Clinician Global Impression-Improvement Scale (CGI-I), Phase 1B study; type: in vivo, human; details: for Cohen's d value, CGI-I (ANCOVA): all test groups (n=18) vs placebo (n=6), Day 7 as baseline
Description: (§1) A double-blind, placebo-controlled, multiple-ascending-dose study employing the compound of formula (1) was performed in patients with symptomatic MDD. Twenty-four subjects were recruited, with their diagnosis and illness severity confirmed through an independent, remote SAFER interview (Targum, S. D., et al., CNS Neurosci. Ther. (2008) 14:2-9) from the Massachusetts General Hospital (MGH) Clinical Trials Network and Institute (CTNI) raters. Each patient underwent a screening for eligibility (Day −37 to Day −6 or −3) and eligible patients were admitted into the unit on Day −5 to complete their wash-out and be reconfirmed for eligibility and for baseline assessments. The patients received daily dosing of formula (1) or placebo for 28 days starting on Day 1 and were followed for safety, pharmacokinetics (PK) and pharmacodynamics (PD) until discharge. At the conclusion of in-house dosing (Day 28), patients remained in the unit for up to 3 additional days, at the psychiatrist's discretion. On Day 35 (±3), Day 42 (±3), Day 49 (±3) and Day 70 (±3) outpatient follow-up visits took place. Patients returned to the unit for extensive follow-up on Day 56 (±3) and Day 84 (±3) (End-of-study).
(§2) The subjects were randomized into four groups of 6 patients each to receive 40 mg of formula (1) per dose administered orally in gelatin capsules once daily, twice daily or three times daily to provide 40 or 80 or 120 mg daily of formula (1) or placebo for 28 days. Each cohort included at least 3 female subjects. In this example, qEEG was used to characterize pharmacodynamic effects.
(§3) In this example, the results of the study of Example 1 were evaluated by the efficacy assessments that included the Montgomery-Asberg Depression Rating Scale (MADRS), the Clinician Global Impression-Improvement (CGI-I), the Symptoms of Depression Questionnaire (SDQ) and the Cognitive and Physical Functioning Questionnaire (CPFQ). […] These improvements persisted over time during the follow-up for MADRS, SDQ and CPFQ.
(§4) Baseline values were adjusted for initial differences and the results for the placebo group (n=6) and the tested groups (n=18) were collapsed. The sizes of the effects were estimated as Cohen's d group mean differences where d=0.20 indicates only a small difference, d=0.50 indicates a medium difference and d=0.80 indicates a large difference. Cohen's d values are described in Cohen, J. (1988) Statistical Power Analysis for the Behavioral Sciences (2nd ed.), Lawrence Erlbaum Associates. D values are used when the scale of a dependent variable is not inherently meaningful, the difference between means are considered in standardized units. That is, effect size is measured in terms of the number of standard deviations by which the means differ. Two commonly used measures are Hedges' g and Cohen's d. Both of these measures consist of the difference between means divided by the standard deviation. They differ only in that Hedges' g uses the version of the standard deviation formula in which division is by N−1, whereas Cohen's d uses the version in which division is by N.
(§5) Covariance is a measure of how much two variables change together and how strong the relationship is between them (Lenth, R. V., The American Statistician (2001) 55:187-193). Analysis of covariance (ANCOVA) is a general linear model which blends analysis of variance (ANOVA) and regression. ANCOVA evaluates whether population means of a dependent variable (DV) are equal across levels of a categorical independent variable (IV), while statistically controlling for the effects of other continuous variables that are not of primary interest, known as covariates (CV). Therefore, when performing ANCOVA, the DV means are adjusted to what they would be if all groups were equal on the CV. In the CGI-I assay, Day 7 was used as the baseline value; in the remaining assays, Day 0 was used as baseline.

[2] = system: patients with symptomatic MDD; assay: Montgomery-Asberg Depression Rating Scale (MADRS), Phase 1B study; type: in vivo, human; details: for MADRS value: FIG. 2; for Cohen's d value, MADRS (ANCOVA): all test groups (n=18) vs placebo (n=6)
Description: as §1, §2, §3, §4, §5

[3] = Day 14, 1x = 40 mg/day oral (n=6)
[4] = Day 14, 2x = 80 mg/day oral (n=6)
[5] = Day 14, 3x = 120 mg/day oral (n=6)
[6] = Day 14, all three dose groups pooled (n=18)
[7] = Day 56 (follow-up after 28 days dosing), 1x = 40 mg/day oral
[8] = Day 56 (follow-up after 28 days dosing), 2x = 80 mg/day oral
[9] = Day 56 (follow-up after 28 days dosing), 3x = 120 mg/day oral
[10] = Day 56 (follow-up after 28 days dosing), all three dose groups pooled (n=18)
[11] = Day 84 (follow-up after 28 days dosing), 1x = 40 mg/day oral
[12] = Day 84 (follow-up after 28 days dosing), 2x = 80 mg/day oral
[13] = Day 84 (follow-up after 28 days dosing), 3x = 120 mg/day oral
[14] = Day 84 (follow-up after 28 days dosing), all three dose groups pooled

In the case of `CC(C)CCNc1ncccc1C(=O)N1CCN(Cc2ccccc2)CC1` [formula (1)], the “Cohen's d value, CGI-I (ANCOVA)” value ([1]; 70 days) is reported as 1.13, the “CGI-I Means” value ([1]; Day 7, 1x = 40 mg/day oral (n=6)) is reported as 3.5 and the “CGI-I Means” value ([1]; Day 7, 2x = 80 mg/day oral (n=6)) is reported as 3.8333. For the same compound, the “CGI-I Means” value ([1]; Day 7, 3x = 120 mg/day oral (n=6)) was 3.6667, the “CGI-I Means” value ([1]; Day 7, all three dose groups pooled (n=18)) was 3.6667 and the “CGI-I Means” value [1, 3] was 3. For the same compound, the “CGI-I Means” value [1, 4] was 3.3333, the “CGI-I Means” value [1, 5] was 3.1667 and the “CGI-I Means” value [1, 6] was 3.1667. For the same compound, the “CGI-I Means” value ([1]; Day 21, 1x = 40 mg/day oral (n=6)) was 2.8333, the “CGI-I Means” value ([1]; Day 21, 2x = 80 mg/day oral (n=6)) was 3.3333 and the “CGI-I Means” value ([1]; Day 21, 3x = 120 mg/day oral (n=6)) was 3.3333. For the same compound, the “CGI-I Means” value ([1]; Day 21, all three dose groups pooled (n=18)) was 3.1667, the CGI-I value ([1]; Day 28, 40 mg/day, FIG. 1, placebo subset (n=2) 3.5) was “approximately 2.5” and the CGI-I value ([1]; Day 28, 80 mg/day (40 mg two times daily), FIG. 1) was 3. For the same compound, the “CGI-I value versus controls” value ([1]; Day 28, 120 mg/day, FIG. 1) was “no difference from controls”, the “CGI-I Means” value ([1]; Day 29, 1x = 40 mg/day oral (n=6)) was 2.5 and the “CGI-I Means” value ([1]; Day 29, 2x = 80 mg/day oral (n=6)) was 2.8333. For the same compound, the “CGI-I Means” value ([1]; Day 29, 3x = 120 mg/day oral (n=6)) was 3.1667, the “CGI-I Means” value ([1]; Day 29, all three dose groups pooled (n=18)) was 2.8333 and the “Cohen's d value, CGI-I (ANCOVA)” value ([1]; Day 30) was 0.57. The “CGI-I Means” value ([1]; Day 35 (follow-up after 28 days dosing), 1x = 40 mg/day oral) was 3.8333, the “CGI-I Means” value ([1]; Day 35 (follow-up after 28 days dosing), 2x = 80 mg/day oral) was 2.8333 and the “CGI-I Means” value ([1]; Day 35 (follow-up after 28 days dosing), 3x = 120 mg/day oral) was 3. For the same compound, the “CGI-I Means” value ([1]; Day 35 (follow-up after 28 days dosing), all three dose groups pooled (n=18)) was 3.2222, the “CGI-I Means” value ([1]; Day 42 (follow-up after 28 days dosing), 1x = 40 mg/day oral) was 3.8333 and the “CGI-I Means” value ([1]; Day 42 (follow-up after 28 days dosing), 2x = 80 mg/day oral) was 3. The “CGI-I Means” value ([1]; Day 42 (follow-up after 28 days dosing), 3x = 120 mg/day oral) was 3, the “CGI-I Means” value ([1]; Day 42 (follow-up after 28 days dosing), all three dose groups pooled (n=18)) was 3.2778 and the “CGI-I Means” value ([1]; Day 49 (follow-up after 28 days dosing), 1x = 40 mg/day oral) was 3.5. For the same compound, the “CGI-I Means” value ([1]; Day 49 (follow-up after 28 days dosing), 2x = 80 mg/day oral) was 3.3333, the “CGI-I Means” value ([1]; Day 49 (follow-up after 28 days dosing), 3x = 120 mg/day oral) was 2.8333 and the “CGI-I Means” value ([1]; Day 49 (follow-up after 28 days dosing), all three dose groups pooled (n=18)) was 3.2222. The “CGI-I Means” value [1, 7] was 3, the “CGI-I Means” value [1, 8] was 3 and the “CGI-I Means” value [1, 9] was 2.1667. For the same compound, the “CGI-I Means” value [1, 10] was 2.7222, the “CGI-I Means” value ([1]; Day 70 (follow-up after 28 days dosing), 1x = 40 mg/day oral) was 3.6667 and the “CGI-I Means” value ([1]; Day 70 (follow-up after 28 days dosing), 2x = 80 mg/day oral) was 3.5. The “CGI-I Means” value ([1]; Day 70 (follow-up after 28 days dosing), 3x = 120 mg/day oral) was 3.3333, the “CGI-I Means” value ([1]; Day 70 (follow-up after 28 days dosing), all three dose groups pooled (n=18)) was 3.5 and the “CGI-I Means” value [1, 11] was 3.3333. For the same compound, the “CGI-I Means” value [1, 12] was 2.6667, the “CGI-I Means” value [1, 13] was 2 and the “CGI-I Means” value [1, 14] was 2.7059. It also gave an MADRS value ([2]; 40 mg/day, controls (n=2) 23.5) of 12.5, an MADRS value ([2]; 80 mg/day, controls (n=2) 18) of 15 and an MADRS value ([2]; 120 mg/day, controls (n=2) 18) of 16. The “MADRS Means” value [2, 3] was 20.1667, the “MADRS Means” value [2, 4] was 18.8333 and the “MADRS Means” value [2, 5] was 15.8333. For the same compound, the “MADRS Means” value [2, 6] was 18.2778, the “MADRS Means” value ([2]; Day 28, 1x = 40 mg/day oral (n=6)) was 12.6667 and the “MADRS Means” value ([2]; Day 28, 2x = 80 mg/day oral (n=6)) was 15. The “MADRS Means” value ([2]; Day 28, 3x = 120 mg/day oral (n=6)) was 16.5, the “MADRS Means” value ([2]; Day 28, all three dose groups pooled (n=18)) was 14.7222 and the “Cohen's d value, MADRS (ANCOVA)” value ([2]; Day 30) was 0.95. The “MADRS Means” value [2, 7] was 14.3333, the “MADRS Means” value [2, 8] was 12 and the “MADRS Means” value [2, 9] was 11.3333. The “MADRS Means” value [2, 10] was 12.5556, the “MADRS Means” value [2, 11] was 15 and the “MADRS Means” value [2, 12] was 12. The “MADRS Means” value [2, 13] was 10.8, the “MADRS Means” value [2, 14] was 12.7059 and the “Cohen's d value, MADRS (ANCOVA)” value ([2]; Day 85) was 0.84. The “MADRS Means” value ([2]; Day −5 (baseline before dosing), 1x = 40 mg/day group) was 24.8333, the “MADRS Means” value ([2]; Day −5 (baseline before dosing), 2x = 80 mg/day group) was 24.6667 and the “MADRS Means” value ([2]; Day −5 (baseline before dosing), 3x = 120 mg/day group) was 24.3333. For the same compound, the “MADRS Means” value ([2]; Day −5 (baseline before dosing), all three dose groups pooled (n=18)) was 24.6111.
